Data as given in ChEMBL document CHEMBL1201862, “PubChem BioAssay data set” (2004).
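Compound exposure: 48 hours, 5 concentrations, 96-well plates. Abbreviation: GI50, concentration required for 50% inhibition of growth.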 Calls of active or inactive are those of the source. No stated cut-off is given here; in the data, active = GI50 up to about 1.1 µM and inactive = higher.

Key:
Test in all cases: NCI tumour cell line growth inhibition, 48 h
A549 = tested on: A549
DU-145 = tested on: DU-145
SF-268 = tested on: SF-268
MDA-MB-435 = tested on: MDA-MB-435
NCI-H23 = tested on: NCI-H23
HOP-62 = tested on: HOP-62
SNB-75 = tested on: SNB-75
RXF 393 = tested on: RXF 393
OVCAR-4 = tested on: OVCAR-4
LOX IMVI = tested on: LOX IMVI
TK-10 = tested on: TK-10
SW-620 = tested on: SW-620
CAKI-1 = tested on: CAKI-1
HOP-92 = tested on: HOP-92
SK-MEL-2 = tested on: SK-MEL-2
786-0 = tested on: 786-0
SNB-19 = tested on: SNB-19
NCI/ADR-RES = tested on: NCI/ADR-RES
HCC 2998 = tested on: HCC 2998
SR = tested on: SR
MCF7 = tested on: MCF7
SK-OV-3 = tested on: SK-OV-3
SF-295 = tested on: SF-295
NCI-H460 = tested on: NCI-H460
OVCAR-3 = tested on: OVCAR-3
NCI-H522 = tested on: NCI-H522
SK-MEL-5 = tested on: SK-MEL-5
HT-29 = tested on: HT-29
HCT-15 = tested on: HCT-15
RPMI-8226 = tested on: RPMI-8226
ACHN = tested on: ACHN
K562 = tested on: K562
BT-549 = tested on: BT-549
KM12 = tested on: KM12
UO-31 = tested on: UO-31
U-251 = tested on: U-251
CCRF-CEM = tested on: CCRF-CEM
HL-60 = tested on: HL-60
UACC-257 = tested on: UACC-257
Hs-578T = tested on: Hs-578T
A498 = tested on: A498
UACC-62 = tested on: UACC-62
NCI-H226 = tested on: NCI-H226
M14 = tested on: M14
COLO 205 = tested on: COLO 205
HCT-116 = tested on: HCT-116
T47D = tested on: T47D
MDA-N = tested on: MDA-N
SN12C = tested on: SN12C
IGROV-1 = tested on: IGROV-1
OVCAR-5 = tested on: OVCAR-5
OVCAR-8 = tested on: OVCAR-8
EKVX = tested on: EKVX
MOLT-4 = tested on: MOLT-4
SK-MEL-28 = tested on: SK-MEL-28
Malme-3M = tested on: Malme-3M
PC-3 = tested on: PC-3
MDA-MB-231 = tested on: MDA-MB-231

## CC1=CC2C3(C)C(C)(C(C)=CP3(=O)c3c(C(C)C)cc(C(C)C)cc3C(C)C)C1P2(=O)c1c(C(C)C)cc(C(C)C)cc1C(C)C (stereo not drawn)
A549
  GI50: 2.42 µM (inactive)
DU-145
  GI50: 3.5 µM (inactive)
SF-268
  GI50: 3.3 µM (inactive)
MDA-MB-435
  GI50: 1.85 µM (inactive)
NCI-H23
  GI50: 1.6 µM (inactive)
HOP-62
  GI50: 2.41 µM (inactive)
SNB-75
  GI50: 3.05 µM (inactive)
RXF 393
  GI50: 3.2 µM (inactive)
OVCAR-4
  GI50: 3.25 µM (inactive)
LOX IMVI
  GI50: 1.58 µM (inactive)
TK-10
  GI50: 2.55 µM (inactive)
SW-620
  GI50: 3.08 µM (inactive)
CAKI-1
  GI50: 3.01 µM (inactive)
HOP-92
  GI50: 1.64 µM (inactive)
SK-MEL-2
  GI50: 1.72 µM (inactive)
786-0
  GI50: 2.12 µM (inactive)
SNB-19
  GI50: 3.84 µM (inactive)
NCI/ADR-RES
  GI50: 2.07 µM (inactive)
HCC 2998
  GI50: 1.9 µM (inactive)
SR
  GI50: 1.34 µM (inactive)
MCF7
  GI50: 2.26 µM (inactive)
SK-OV-3
  GI50: 2.38 µM (inactive)
SF-295
  GI50: 2.4 µM (inactive)
NCI-H460
  GI50: 1.47 µM (inactive)
OVCAR-3
  GI50: 1.75 µM (inactive)
NCI-H522
  GI50: 2.4 µM (inactive)
SK-MEL-5
  GI50: 1.48 µM (inactive)
HT-29
  GI50: 2.11 µM (inactive)
HCT-15
  GI50: 1.95 µM
RPMI-8226
  GI50: 0.916 µM (active)
ACHN
  GI50: 2.68 µM (inactive)
K562
  GI50: 1.91 µM (inactive)
BT-549
  GI50: 1.77 µM (inactive)
KM12
  GI50: 1.78 µM (inactive)
UO-31
  GI50: 1.87 µM (inactive)
U-251
  GI50: 2.45 µM (inactive)
CCRF-CEM
  GI50: 2.04 µM (inactive)
HL-60
  GI50: 1.09 µM (active)
UACC-257
  GI50: 1.7 µM (inactive)
Hs-578T
  GI50: 2.28 µM (inactive)
A498
  GI50: 2.16 µM (inactive)
UACC-62
  GI50: 1.37 µM (inactive)
NCI-H226
  GI50: 2.23 µM (inactive)
M14
  GI50: 1.92 µM (inactive)
COLO 205
  GI50: 1.6 µM (inactive)
HCT-116
  GI50: 1.75 µM (inactive)
T47D
  GI50: 1.33 µM (inactive)
MDA-N
  GI50: 2.21 µM (inactive)
SN12C
  GI50: 2.58 µM (inactive)
IGROV-1
  GI50: 1.98 µM (inactive)
OVCAR-5
  GI50: 2.06 µM (inactive)
OVCAR-8
  GI50: 3.37 µM (inactive)
EKVX
  GI50: 2.92 µM (inactive)
MOLT-4
  GI50: 1.66 µM (inactive)
SK-MEL-28
  GI50: 2.58 µM (inactive)
Malme-3M
  GI50: 2.17 µM (inactive)
PC-3
  GI50: 2.7 µM (inactive)
MDA-MB-231
  GI50: 1.77 µM (inactive)
